According to publication PMC3961306, “Comparison of the Cancer Gene Targeting and Biochemical Selectivities of All Targeted Kinase Inhibitors Approved for Clinical Use” (PLoS ONE, 2014):
Where two headings read alike, the source gives them in different places.

Experiments:
[1] = molecular target: panel of more than 300 wild-type and mutant kinases (313 kinase panel) (Homo sapiens, UniProt P51617); assay: Kinase profiling in a biochemical assay panel (mobility shift assays and ELISA), %-inhibition at 1 μM; selectivity entropy; settings: kinase IRAK1; compound at 1 μM
[2] = molecular target: panel of more than 300 wild-type and mutant kinases (313 kinase panel) (Homo sapiens, UniProt P07947, T348I); assay: as above; settings: kinase YES(T348I); compound at 1 μM
[3] = molecular target: T1, panel of more than 300 wild-type and mutant kinases (313 kinase panel) (Homo sapiens, UniProt P00540); assay: as above; settings: kinase MOS; 1 μM
T1 sequence (P00540 1-346): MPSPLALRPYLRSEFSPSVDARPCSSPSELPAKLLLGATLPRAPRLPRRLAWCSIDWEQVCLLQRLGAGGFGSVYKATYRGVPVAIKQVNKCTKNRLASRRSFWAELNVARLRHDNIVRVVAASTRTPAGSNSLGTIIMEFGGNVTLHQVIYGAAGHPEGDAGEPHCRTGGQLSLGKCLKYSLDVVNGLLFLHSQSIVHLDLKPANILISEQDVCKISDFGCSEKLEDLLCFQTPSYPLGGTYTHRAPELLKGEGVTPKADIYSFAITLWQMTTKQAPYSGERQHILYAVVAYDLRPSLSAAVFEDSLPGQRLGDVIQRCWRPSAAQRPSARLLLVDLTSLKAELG

[4] = molecular target: panel of more than 300 wild-type and mutant kinases (313 kinase panel) (Homo sapiens, UniProt P51451); assay: as above; settings: kinase BLK; 1 μM compound
[5] = molecular target: panel of more than 300 wild-type and mutant kinases (313 kinase panel) (Homo sapiens, UniProt P15056); assay: as above; settings: kinase BRAF; 1 μM compound
[6] = molecular target: panel of more than 300 wild-type and mutant kinases (313 kinase panel) (Homo sapiens, UniProt P42684); assay: as above; settings: kinase ARG; 1 μM compound
[7] = molecular target: panel of more than 300 wild-type and mutant kinases (313 kinase panel) (Homo sapiens, UniProt P11362, V561M); assay: as above; settings: kinase FGFR1(V561M); compound at 1 μM
[8] = molecular target: panel of more than 300 wild-type and mutant kinases (313 kinase panel) (Homo sapiens, UniProt P35968); assay: as above; settings: kinase KDR; compound at 1 μM
[9] = tested on: forty-four human cancer cell lines; assay: Cell proliferation assay (ATPlite, 72 hours) in the 44 cell line Oncolines panel; type: cell-based; settings: Homo sapiens

## CO[C@H]1C[C@@H]2CC[C@@H](C)[C@@](O)(O2)C(=O)C(=O)N2CCCC[C@H]2C(=O)O[C@H]([C@H](C)C[C@@H]2CC[C@@H](OCCO)[C@H](OC)C2)CC(=O)[C@H](C)/C=C(\C)[C@@H](O)[C@@H](OC)C(=O)[C@H](C)C[C@H](C)/C=C/C=C/C=C/1C [everolimus]
[1]
  %-inhibition of IRAK1: 12%
[2]
  %-inhibition of YES(T348I): -0.414%
[3]
  %-inhibition of MOS: 3.3%
[4]
  %-inhibition, BLK: -7%
[5]
  %-inhibition, BRAF: -6.54%
[6]
  %-inhibition, ARG: 1.07%
[7]
  %-inhibition of FGFR1(V561M): -12%
[8]
  %-inhibition of KDR: -6.38%
[9]; 769-P, cell line 769-P, read-out: cell panel IC50, 769-P
  IC50: 373 nM
[9]; 786-0, cell line 786-0, read-out: cell panel IC50, 786-0
  IC50: 204 nM
[9]; A 172, read-out: cell panel IC50, A-172, cell line A-172
  IC50: 50 nM
[9]; A204, cell line A-204, read-out: cell panel IC50, A-204
  IC50: 11900 nM
[9]; A498, read-out: cell panel IC50, A-498, cell line A-498
  IC50: 1240 nM
[9]; A549, read-out: cell panel IC50, A-549, cell line A-549
  IC50: 732 nM
[9]; A-375, cell line A375, read-out: cell panel IC50, A375
  IC50: 18700 nM
[9]; A-427, read-out: cell panel IC50, A-427, cell line A-427
  IC50: 94 nM
[9]; ACHN, cell line ACHN, read-out: cell panel IC50, ACHN
  IC50: 15100 nM
[9]; AN3-CA, cell line AN3 CA, read-out: cell panel IC50, AN3 CA
  IC50: 104 nM
[9]; AU565, read-out: cell panel IC50, AU-565, cell line AU-565
  IC50: 27300 nM
[9]; BT-20, cell line BT-20, read-out: cell panel IC50, BT-20
  IC50: 7 nM
[9]; BT-549, read-out: cell panel IC50, BT-549, cell line BT-549
  IC50: 58 nM
[9]; BXPC-3, cell line BxPC-3, read-out: cell panel IC50, BxPC-3
  IC50: > 31600 nM
[9]; C-33-A, cell line C-33 A, read-out: cell panel IC50, C-33 A
  IC50: 20 nM
[9]; CAL-27, cell line CAL 27, read-out: cell panel IC50, CAL 27
  IC50: 2690 nM
[9]; CCRF-CEM, cell line CCRF-CEM, read-out: cell panel IC50, CCRF-CEM
  IC50: 1420 nM
[9]; DLD-1, cell line DLD-1, read-out: cell panel IC50, DLD-1
  IC50: 495 nM
[9]; FaDu, cell line FaDu, read-out: cell panel IC50, FaDu
  IC50: 1170 nM
[9]; HCT-15, cell line HCT-15, read-out: cell panel IC50, HCT-15
  IC50: 292 nM
[9]; HCT-116, read-out: cell panel IC50, HCT-116, cell line HCT-116
  IC50: 19100 nM
[9]; Hs-578T, cell line Hs 578T, read-out: cell panel IC50, Hs 578T
  IC50: 49 nM
[9]; Jurkat E6.1, cell line Jurkat E6.1, read-out: cell panel IC50, Jurkat E6.1
  IC50: 63 nM
[9]; K562, read-out: cell panel IC50, K-562, cell line K-562
  IC50: > 31600 nM
[9]; LS174T, read-out: cell panel IC50, LS 174T, cell line LS 174T
  IC50: > 31600 nM
[9]; LoVo, cell line LoVo, read-out: cell panel IC50, LoVo
  IC50: > 31600 nM
[9]; MG-63, cell line MG-63, read-out: cell panel IC50, MG-63
  IC50: 453 nM
[9]; MOLT-4, cell line MOLT-4, read-out: cell panel IC50, MOLT-4
  IC50: 153 nM
[9]; MeWo, cell line MeWo, read-out: cell panel IC50, MeWo
  IC50: > 31600 nM
[9]; NCI-H82, cell line NCI-H82, read-out: cell panel IC50, NCI-H82
  IC50: 4780 nM
[9]; NCI-H460, cell line NCI-H460, read-out: cell panel IC50, NCI-H460
  IC50: 3970 nM
[9]; OVCAR-3, cell line OVCAR-3, read-out: cell panel IC50, OVCAR-3
  IC50: 471 nM
[9]; RPMI-7951, cell line RPMI-7951, read-out: cell panel IC50, RPMI-7951
  IC50: 1.2 nM
[9]; SHP77, cell line SHP-77, read-out: cell panel IC50, SHP-77
  IC50: > 31600 nM
[9]; SK-N-AS, cell line SK-N-AS, read-out: cell panel IC50, SK-N-AS
  IC50: 299 nM
[9]; SW48, cell line SW48, read-out: cell panel IC50, SW48
  IC50: 18800 nM
[9]; SW480, cell line SW480, read-out: cell panel IC50, SW480
  IC50: 14800 nM
[9]; SW-620, cell line SW620, read-out: cell panel IC50, SW620
  IC50: 16700 nM
[9]; U2OS, cell line U-2 OS, read-out: cell panel IC50, U-2 OS
  IC50: 4250 nM
[9]; cell line J82, read-out: cell panel IC50, J82
  IC50: 433 nM
[9]; cell line PA-1, read-out: cell panel IC50, PA-1
  IC50: 3350 nM
[9]; cell line SJCRH30, read-out: cell panel IC50, SJCRH30
  IC50: 28400 nM
[9]; cell line SR, read-out: cell panel IC50, SR
  IC50: 109 nM
[9]; U-87 MG cell line, ATPlite, 72 hours, read-out: IC50 in cell proliferation assay (table S5 cellpanel data)
  IC50: 652 nM
